Source: US5712253A, “Macrocyclic 13-membered ring derivatives of erythromycins A and B” (Abbott Laboratories, priority 1996, dated 1998)
≈ marks a conversion by molar mass, not a printed value. Where two headings read alike, the source gives them in different places.

Key:
Escherichia coli SS = assay: Antibacterial activity (agar dilution method), MIC; format: cell-based; conditions: unit assumed
Procedure: (§1) Compounds of the invention were next tested for antibacterial potency, such activity being regarded as an undesirable side effect of motilin […] therapy. Assays were conducted using methodology well-known in the art (the agar dilution method).

[1] = tested on: Pseudomonas eruginosa K799/WT; assay: Antibacterial activity (agar dilution method), MIC; format: cell-based; conditions: unit assumed
Procedure: as §1

[2] = tested on: Streptococcus aureus A5177; assay: Antibacterial activity (agar dilution method), MIC; format: cell-based; conditions: unit assumed
Procedure: as §1

[3] = tested on: Streptococcus aureus ATCC 7538P; assay: Antibacterial activity (agar dilution method), MIC; format: cell-based; conditions: unit assumed
Procedure: as §1

[4] = tested on: Streptococcus bovis ATCC 8043; assay: Antibacterial activity (agar dilution method), MIC; format: cell-based; conditions: unit assumed
Procedure: as §1

[5] = tested on: Streptococcus pyogenes EES61; assay: Antibacterial activity (agar dilution method), MIC; format: cell-based; conditions: unit assumed
Procedure: as §1

[6] = tested on: rabbit duodenal smooth muscle; assay: In vitro prokinetic activity: contraction of smooth muscle strips isolated from rabbit small intestine (duodenum); format: cell-based
Procedure: The compounds of the present invention were tested in vitro for their ability to induce contraction of smooth muscle strips isolated from rabbit small intestine using the following procedure:
Rabbits were sacrificed and 15 cm of duodenum was rapidly removed and placed in ice-cold modified Ringers solution (120 mM sodium chloride, 25 mM sodium bicarbonate, 4.7 mM potassium chloride, 1.25 mM calcium chloride, 1.20 mM magnesium sulfate and 5.6 mM glucose). The longitudinal muscle layer was separated from the circular muscle by blunt dissection and cut into strips of 10×20 mm. Double-folded strips were vertically suspended between two hooks in 10 mL tissue baths with a mechanical preload of 1 g. The upper hook was connected to an […] force transducer, and its displacement was recorded on a Grass polygraph. The tissue baths contained modified Ringers solution at 37° C. and were continuously gassed with 95% oxygen/5% carbon dioxide in order to maintain the pH at 7.5.
After a stabilization period of at least 60 minutes, a contractility dose-response series was performed by adding increasing final concentrations of methacholine (10^-7 M, 10^-6 M and 10^-5 M) in volumes of 100 μL. The bath solutions were replaced at least three times between doses.
After the methacholine dose-response series was completed, a test compound dose response curve was initiated by the same procedure used for the methacholine dose-response series, with at least five concentrations of test compound within the range of 10^-10 M to 10^-4 M. The tissues were washed repeatedly between doses, and the studies were completed by recording the contractile response to 10^-5 M methacholine to ascertain integrity of the muscle preparation. Contractile responses were expressed as percent of maximal methacholine induced contraction. The concentration of test compound which produces half of the maximal contraction (ED50 value) and the negative logarithm of the ED50 value (pED50) were estimated from the dose-response curves. The pED50 values were compared to motilin, (pED50 : 8.10) a known gastrointestinal prokinetic agent.

motilin receptors = target: T1, motilin receptors (Oryctolagus cuniculus, UniProt G1T803); assay: Motilin receptor binding activity ([^125 I]-motilin displacement, rabbit antral smooth muscle)
T1 construct: Motilin receptors were isolated from rabbit antral smooth muscle tissue; from tissue; host or cells: rabbit antral smooth muscle tissue
Text: This ability of the compounds to bind strongly to motilin receptors and the effective absence of elicitation of contractile activity by estimated therapeutic concentration of these compounds in rabbit duodenal smooth muscle together constitute motilin antagonist activity of the compounds.

T1 sequence (G1T803 1-400): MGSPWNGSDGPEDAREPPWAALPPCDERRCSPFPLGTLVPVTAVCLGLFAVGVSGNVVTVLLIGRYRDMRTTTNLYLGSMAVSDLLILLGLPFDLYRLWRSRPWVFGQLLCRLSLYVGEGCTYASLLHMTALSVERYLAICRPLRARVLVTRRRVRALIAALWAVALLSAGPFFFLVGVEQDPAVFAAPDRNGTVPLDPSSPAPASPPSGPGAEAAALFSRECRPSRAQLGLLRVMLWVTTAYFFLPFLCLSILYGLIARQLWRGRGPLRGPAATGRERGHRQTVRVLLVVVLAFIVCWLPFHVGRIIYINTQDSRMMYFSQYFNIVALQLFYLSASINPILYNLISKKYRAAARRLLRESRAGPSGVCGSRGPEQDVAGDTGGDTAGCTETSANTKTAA

Structure (SMILES) | MIC (Escherichia coli SS) | MIC [1] | MIC [2] | MIC [3] | MIC [4] | MIC [5] | EC50 ([6]; Oryctolagus cuniculus, rabbit duodenum strips, 37° C., percent of maximal methacholine induced contraction, read-out: pED50 (negative logarithm of the concentration producing half of the maximal contraction) (converted)) | agonism for induction of contractile activity (in words) ([6]; rabbit duodenal smooth muscle) | potency relative to motilin, induction of contractile activity ([6]; rabbit duodenal smooth muscle, pED50 compared to motilin) | motilin receptor binding (in words) (motilin receptors; rabbit antral smooth muscle, [^125 I]-motilin) | Kd (motilin receptors; rabbit antral smooth muscle, [^125 I]-motilin, read-out: pKd, motilin binding (negative logarithm of the concentration displacing 50% of bound [^125 I]-motilin) (converted)) | pED50 (negative logarithm of the concentration producing half of the maximal contraction) ([6]; rabbit duodenum strips, 37° C., percent of maximal methacholine induced contraction) | Kd (motilin receptors)
CC[C@H]1OC(=O)[C@H](C)[C@@H](O[C@H]2C[C@@](C)(OC)[C@@H](O)[C@H](C)O2)[C@H](C)[C@@H](O[C@@H]2O[C@H](C)C[C@H](N(C)C)[C@H]2O)[C@](C)(O)C[C@@H](C)C(=O)[C@H](C)[C@@H](O)[C@]1(C)O [Erythromycin] | 0.39 µg/mL (≈ 0.531 µM) | 0.78 µg/mL (≈ 1.06 µM) | 6.2 µg/mL (≈ 8.45 µM) | 0.2 µg/mL (≈ 0.273 µM) | 0.05 µg/mL (≈ 0.0681 µM) | 0.05 µg/mL (≈ 0.0681 µM) |  |  |  |  |  |  | 
CC[C@H]1OC(=O)[C@H](C)[C@@H](O[C@H]2C[C@@](C)(OC)C[C@H](C)O2)[C@H](C)[C@@H](O[C@@H]2O[C@H](C)C[C@H](N(C)CC)[C@H]2O)[C@@]2(C)CC(C)=C(O2)C(C(C)F)[C@H]1C (stereo partly shown) [Example 1, Compound of Formula (I); R=H; R^1 =methyl; R^2 =ethyl; R^3 =H; X=F] | > 100 µg/mL | > 100 µg/mL | 50 µg/mL | 50 µg/mL | 25 µg/mL | 25 µg/mL | > 100000 nM | very weak agonist | more than four orders of magnitude less potent than motilin | binds strongly to motilin receptors | 11.5 nM |  | 
CC[C@H](C)[C@H](NC(=O)[C@@H]1CCCN1C(=O)[C@@H](NC(=O)[C@@H](N)Cc1ccccc1)C(C)C)C(=O)N[C@@H](Cc1ccccc1)C(=O)N[C@H](C(=O)N[C@@H](Cc1ccc(O)cc1)C(=O)NCC(=O)N[C@@H](CCC(=O)O)C(=O)N[C@@H](CC(C)C)C(=O)N[C@@H](CCC(N)=O)C(=O)N[C@@H](CCCNC(=N)N)C(=O)N[C@@H](CCSC)C(=O)N[C@@H](CCC(N)=O)C(=O)N[C@@H](CCC(=O)O)C(=O)N[C@@H](CCCCN)C(=O)N[C@@H](CCC(=O)O)C(=O)N[C@@H](CCCNC(=N)N)C(=O)N[C@@H](CC(N)=O)C(=O)N[C@@H](CCCCN)C(=O)NCC(=O)N[C@@H](CCC(N)=O)C(=O)O)[C@@H](C)O [motilin, reference compound] |  |  |  |  |  |  |  |  |  |  |  | 8.10 | 0.794 nM
